In ChEMBL document CHEMBL2439971, “Design, synthesis and antiproliferative evaluation of fluorenone analogs with DNA topoisomerase I inhibitory properties” (Bioorg Med Chem, 2013):
Active and inactive are the calls of the source. The rule behind the calls is not given here.

How the values were obtained:
[1] = Cytotoxicity against human NCI60 cells; type: functional
U-251 = experiment: Cytotoxicity against human U251 cells at 10 uM after 48 hrs by sulforhodamine B assay relative to control; type: functional
K562 = experiment: Cytotoxicity against human K562 cells at 10 uM after 48 hrs by sulforhodamine B assay relative to control; type: functional
SN12C = experiment: Cytotoxicity against human SN12C cells at 10 uM after 48 hrs by sulforhodamine B assay relative to control; type: functional
CAKI-1 = experiment: Cytotoxicity against human CAKI-1 cells at 10 uM after 48 hrs by sulforhodamine B assay relative to control; type: functional
HL-60(TB) = experiment: Cytotoxicity against human HL-60(TB) cells at 10 uM after 48 hrs by sulforhodamine B assay relative to control; type: functional
SR = experiment: Cytotoxicity against human SR cells at 10 uM after 48 hrs by sulforhodamine B assay relative to control; type: functional
TK-10 = experiment: Cytotoxicity against human TK10 cells at 10 uM after 48 hrs by sulforhodamine B assay relative to control; type: functional
UACC-62 = experiment: Cytotoxicity against human UACC62 cells at 10 uM after 48 hrs by sulforhodamine B assay relative to control; type: functional
Malme-3M = experiment: Cytotoxicity against human MALME-3M cells at 10 uM after 48 hrs by sulforhodamine B assay relative to control; type: functional
MDA-MB-231 = experiment: Cytotoxicity against human MDA-MB-231 cells at 10 uM after 48 hrs by sulforhodamine B assay relative to control; type: functional
NCI-H23 = experiment: Cytotoxicity against human NCI-H23 cells at 10 uM after 48 hrs by sulforhodamine B assay relative to control; type: functional
MOLT-4 = experiment: Cytotoxicity against human MOLT4 cells at 10 uM after 48 hrs by sulforhodamine B assay relative to control; type: functional
A549 = experiment: Cytotoxicity against human A549 cells at 10 uM after 48 hrs by sulforhodamine B assay relative to control; type: functional
HT-29 = experiment: Cytotoxicity against human HT-29 cells at 10 uM after 48 hrs by sulforhodamine B assay relative to control; type: functional
Homo sapiens = species on record: Homo sapiens; experiment: Inhibition of telomerase (unknown origin) at 10 uM TRAP assay
SK-MEL-28 = experiment: Cytotoxicity against human SK-MEL-28 cells at 10 uM after 48 hrs by sulforhodamine B assay relative to control; type: functional
RPMI-8226 = experiment: Cytotoxicity against human RPMI8226 cells at 10 uM after 48 hrs by sulforhodamine B assay relative to control; type: functional
NCI-H460 = experiment: Cytotoxicity against human NCI-H460 cells at 10 uM after 48 hrs by sulforhodamine B assay relative to control; type: functional
OVCAR-8 = experiment: Cytotoxicity against human OVCAR8 cells at 10 uM after 48 hrs by sulforhodamine B assay relative to control; type: functional
HCC 2998 = experiment: Cytotoxicity against human HCC2998 cells at 10 uM after 48 hrs by sulforhodamine B assay relative to control; type: functional
UO-31 = experiment: Cytotoxicity against human UO31 cells at 10 uM after 48 hrs by sulforhodamine B assay relative to control; type: functional
SK-MEL-5 = experiment: Cytotoxicity against human SK-MEL-5 cells at 10 uM after 48 hrs by sulforhodamine B assay relative to control; type: functional
NCI-H226 = experiment: Cytotoxicity against human NCI-H226 cells at 10 uM after 48 hrs by sulforhodamine B assay relative to control; type: functional
BT-549 = experiment: Cytotoxicity against human BT549 cells at 10 uM after 48 hrs by sulforhodamine B assay relative to control; type: functional
UACC-257 = experiment: Cytotoxicity against human UACC257 cells at 10 uM after 48 hrs by sulforhodamine B assay relative to control; type: functional
NCI-H322M = experiment: Cytotoxicity against human NCI-H322M cells at 10 uM after 48 hrs by sulforhodamine B assay relative to control; type: functional
PC-3 [2] = experiment: Cytotoxicity against human PC3 cells at 10 uM after 48 hrs by sulforhodamine B assay relative to control; type: functional
SK-MEL-2 = experiment: Cytotoxicity against human SK-MEL-2 cells at 10 uM after 48 hrs by sulforhodamine B assay relative to control; type: functional
T47D = experiment: Cytotoxicity against human T47D cells at 10 uM after 48 hrs by sulforhodamine B assay relative to control; type: functional
COLO 205 = experiment: Cytotoxicity against human COLO205 cells at 10 uM after 48 hrs by sulforhodamine B assay relative to control; type: functional
DU-145 = experiment: Cytotoxicity against human DU145 cells at 10 uM after 48 hrs by sulforhodamine B assay relative to control; type: functional
OVCAR-3 = experiment: Cytotoxicity against human OVCAR3 cells at 10 uM after 48 hrs by sulforhodamine B assay relative to control; type: functional
SW-620 = experiment: Cytotoxicity against human SW620 cells at 10 uM after 48 hrs by sulforhodamine B assay relative to control; type: functional
[3] = Cytotoxicity against human Hs 578T cells at 10 uM after 48 hrs by sulforhodamine B assay relative to control; type: functional
NCI/ADR-RES = experiment: Cytotoxicity against human NCI/ADR-RES cells at 10 uM after 48 hrs by sulforhodamine B assay relative to control; type: functional
RXF 393 = experiment: Cytotoxicity against human RXF393 cells at 10 uM after 48 hrs by sulforhodamine B assay relative to control; type: functional
OVCAR-4 = experiment: Cytotoxicity against human OVCAR4 cells at 10 uM after 48 hrs by sulforhodamine B assay relative to control; type: functional
HCT-15 = experiment: Cytotoxicity against human HCT15 cells at 10 uM after 48 hrs by sulforhodamine B assay relative to control; type: functional
OVCAR-5 = experiment: Cytotoxicity against human OVCAR5 cells at 10 uM after 48 hrs by sulforhodamine B assay relative to control; type: functional
786-0 = experiment: Cytotoxicity against human 786-0 cells at 10 uM after 48 hrs by sulforhodamine B assay relative to control; type: functional
IGROV-1 = experiment: Cytotoxicity against human IGROV1 cells at 10 uM after 48 hrs by sulforhodamine B assay relative to control; type: functional
[4] = Cytotoxicity against human EKVX cells at 10 uM after 48 hrs by sulforhodamine B assay relative to control; type: functional
HOP-62 = experiment: Cytotoxicity against human HOP62 cells at 10 uM after 48 hrs by sulforhodamine B assay relative to control; type: functional
ACHN = experiment: Cytotoxicity against human ACHN cells at 10 uM after 48 hrs by sulforhodamine B assay relative to control; type: functional
SF-295 = experiment: Cytotoxicity against human SF295 cells at 10 uM after 48 hrs by sulforhodamine B assay relative to control; type: functional
HCT-116 = experiment: Cytotoxicity against human HCT116 cells at 10 uM after 48 hrs by sulforhodamine B assay relative to control; type: functional
HOP-92 = experiment: Cytotoxicity against human HOP92 cells at 10 uM after 48 hrs by sulforhodamine B assay relative to control; type: functional
M14 = experiment: Cytotoxicity against human M14 cells at 10 uM after 48 hrs by sulforhodamine B assay relative to control; type: functional
SNB-75 = experiment: Cytotoxicity against human SNB75 cells at 10 uM after 48 hrs by sulforhodamine B assay relative to control; type: functional
KM12 = experiment: Cytotoxicity against human KM12 cells at 10 uM after 48 hrs by sulforhodamine B assay relative to control; type: functional
SF-539 = experiment: Cytotoxicity against human SF539 cells at 10 uM after 48 hrs by sulforhodamine B assay relative to control; type: functional
NCI-H522 = experiment: Cytotoxicity against human NCI-H522 cells at 10 uM after 48 hrs by sulforhodamine B assay relative to control; type: functional
SF-268 = experiment: Cytotoxicity against human SF268 cells at 10 uM after 48 hrs by sulforhodamine B assay relative to control; type: functional
CCRF-CEM = experiment: Cytotoxicity against human CCRF-CEM cells at 10 uM after 48 hrs by sulforhodamine B assay relative to control; type: functional
MCF7 = experiment: Cytotoxicity against human MCF7 cells at 10 uM after 48 hrs by sulforhodamine B assay relative to control; type: functional
MDA-MB-468 = experiment: Cytotoxicity against human MDA-MB-468 cells at 10 uM after 48 hrs by sulforhodamine B assay relative to control; type: functional
PC-3 [5] = experiment: Cytotoxicity against human PC3 cells after 48 hrs by sulforhodamine B assay; type: functional, cell-based; conditions: PC-3, 48 h
SNB-19 = experiment: Cytotoxicity against human SNB19 cells at 10 uM after 48 hrs by sulforhodamine B assay relative to control; type: functional
MDA-MB-435 = experiment: Cytotoxicity against human MDA-MB-435 cells at 10 uM after 48 hrs by sulforhodamine B assay relative to control; type: functional
LOX IMVI = experiment: Cytotoxicity against human LOXIMVI cells at 10 uM after 48 hrs by sulforhodamine B assay relative to control; type: functional

## O=C(CCN1CCCC1)Nc1ccc2c(c1)C(=O)c1cc(NC(=O)CCN3CCCC3)ccc1C2=O
[1]
  GI50: 3.89 µM

## CCNCCC(=O)Nc1ccc2c(c1)C(=O)c1cc(NC(=O)CCNCC)ccc1-2
U-251
  Activity: 92.86%
K562
  Activity: 92.16%
SN12C
  Activity: 94.35%
CAKI-1
  Activity: 96.47%
HL-60(TB)
  Activity: 104.46%
SR
  Activity: 101.47%
TK-10
  Activity: 103.34%
UACC-62
  Activity: 100.48%
Malme-3M
  Activity: 101.61%
MDA-MB-231
  Activity: 105.71%
NCI-H23
  Activity: 98.77%
MOLT-4
  Activity: 98.76%
A549
  Activity: 94.72%
HT-29
  Activity: 104.19%
Homo sapiens
  inhibition: inactive
SK-MEL-28
  Activity: 105.31%
RPMI-8226
  Activity: 104.16%
NCI-H460
  Activity: 109.14%
OVCAR-8
  Activity: 103.63%
HCC 2998
  Activity: 104.87%
UO-31
  Activity: 102.42%
SK-MEL-5
  Activity: 102.17%
NCI-H226
  Activity: 105.54%
BT-549
  Activity: 119.2%
UACC-257
  Activity: 111.63%
NCI-H322M
  Activity: 100.96%
PC-3 [2]
  Activity: 101.42%
SK-MEL-2
  Activity: 126.91%
T47D
  Activity: 108.97%
COLO 205
  Activity: 110.13%
DU-145
  Activity: 120.33%
OVCAR-3
  Activity: 120.25%
SW-620
  Activity: 101.71%
[3]
  Activity: 98.9%
NCI/ADR-RES
  Activity: 96.39%
RXF 393
  Activity: 105.09%
OVCAR-4
  Activity: 105.01%
HCT-15
  Activity: 108.19%
OVCAR-5
  Activity: 110.42%
786-0
  Activity: 102.08%
IGROV-1
  Activity: 108.06%
[4]
  Activity: 102.12%
HOP-62
  Activity: 105.98%
ACHN
  Activity: 120.72%
SF-295
  Activity: 88.95%
HCT-116
  Activity: 109.77%
HOP-92
  Activity: 87.24%
M14
  Activity: 113.99%
SNB-75
  Activity: 92.33%
KM12
  Activity: 114.64%
SF-539
  Activity: 116.97%
NCI-H522
  Activity: 103.53%
SF-268
  Activity: 121.13%
CCRF-CEM
  Activity: 101.3%
MCF7
  Activity: 87.69%
MDA-MB-468
  Activity: 96.83%
PC-3 [5]
  IC50: > 30 µM
SNB-19
  Activity: 100.42%
MDA-MB-435
  Activity: 97.63%
LOX IMVI
  Activity: 97.55%
